According to patent US7351720B2, “N-ureidoalkyl-piperidines as modulators of chemokine receptor activity” (Bristol-Myers Squibb Company, priority 2003, dated 2008):

CC(=O)N(C)[C@@H]1CC[C@@H](NC(=O)Nc2nc(C)cs2)[C@H](CN2CCC[C@@H](Cc3ccc(F)cc3)C2)C1 [Example 1, N-{(3S,4R)-3-[3S-(4-Fluorobenzyl)-piperidin-1-ylmethyl]-4-[3-(4-methyl-thiazol-2-yl)-ureido]-(R)-cyclohexyl}-N-methyl-acetamide]
melting point: 191 °C
